A short description of experiment [1]: HEp-2 cell cytotoxicity, dose response, cytotoxicity control for RSV inhibitor project, HTS (AID 2410). Format: functional. The settings on record: human respiratory syncytial virus.
Experiment [2] concerns the target T1, Corticotropin-releasing factor receptor 2/Corticotropin-releasing factor-binding protein (Homo sapiens, UniProt P24387+Q13324).
T1 sequence (Q13324 whole entry): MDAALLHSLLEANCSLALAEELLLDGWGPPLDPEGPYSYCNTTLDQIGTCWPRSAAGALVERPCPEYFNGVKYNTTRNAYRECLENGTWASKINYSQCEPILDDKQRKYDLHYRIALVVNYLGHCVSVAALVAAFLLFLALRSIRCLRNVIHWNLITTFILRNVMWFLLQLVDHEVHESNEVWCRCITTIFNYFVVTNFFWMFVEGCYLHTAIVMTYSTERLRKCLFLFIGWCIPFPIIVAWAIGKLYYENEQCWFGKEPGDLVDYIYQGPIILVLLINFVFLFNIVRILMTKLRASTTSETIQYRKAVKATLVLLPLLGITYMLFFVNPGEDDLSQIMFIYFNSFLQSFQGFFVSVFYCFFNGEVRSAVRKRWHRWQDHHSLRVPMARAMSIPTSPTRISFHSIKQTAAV
T1 sequence (P24387 whole entry): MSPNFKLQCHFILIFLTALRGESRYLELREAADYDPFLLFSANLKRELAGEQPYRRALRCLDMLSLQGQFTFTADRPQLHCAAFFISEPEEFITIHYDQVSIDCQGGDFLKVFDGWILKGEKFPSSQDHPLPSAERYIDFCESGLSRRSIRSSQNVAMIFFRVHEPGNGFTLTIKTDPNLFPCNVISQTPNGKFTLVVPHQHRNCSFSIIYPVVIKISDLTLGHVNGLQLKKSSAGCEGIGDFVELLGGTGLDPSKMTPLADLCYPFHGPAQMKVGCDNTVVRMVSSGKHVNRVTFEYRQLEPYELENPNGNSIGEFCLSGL
Briefly: activators of CRF receptor 2 with binding protein – uHTS hits, confirmation (AID 602473). Format: functional. The note with it: read-out: EC50_Mean.

Experiment [3] addresses T1, Corticotropin-releasing factor receptor 2/Corticotropin-releasing factor-binding protein. Briefly: Dose Response confirmation of uHTS hits for small molecule antagonists of the CRF-binding protein and CRF-R2 receptor complex. Type of experiment: functional. The note with it: read-out: IC50_Mean.
Experiment [4] can be described thus: Luminescence Cell-Based Dose Response HTS to Identify Activators of Luciferase Translation or Activity in H4 […] Cells. [Related pubchem assays: 1829 (Project Summary), 1814 (Primary HTS)]. Format: functional.
The next experiment deals with H4. Nature of the experiment: Luminescence Cell-Based Dose Response HTS to Identify Activators of 5'UTR Stem-Loop Driven Prion Protein mRNA Translation in H4 Neuroglioblastoma Cells. [Related pubchem assays: 1829 (Project Summary), 1814 (Primary HTS)]. Type of experiment: functional. The note with it: Homo sapiens.
Experiment [5] can be described thus: Luminescence Cell-Based Dose Confirmation HTS to Identify Activators of 5'UTR Stem-Loop Driven Alpha-Synuclein mRNA Translation in H4 Neuroglioblastoma Cells. [Related pubchem assays: 1829 (Project Summary), 1814 (Primary HTS)]. Type of experiment: functional.
A short description of experiment [6]: cytotoxicity toward NIH3T3 fibroblasts, dose response, counter-screen, cell-based, ATP luminescence, mouse fibroblasts (AID 2010).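 Also: cells exposed to compound for about 90 hours before reading.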 Format: functional. (In general: Counterscreens check selectivity or assay interference.)
Experiment [7] can be described thus: inhibitors of intracellular T. cruzi replication, confirmation, NIH3T3 host cells, beta-gal luminescence (AID 2044).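 Also: intracellular parasites grown in NIH/3T3 mouse fibroblasts as host cells; luminescent beta-galactosidase reporter signal from transgenic T. cruzi replicating inside host cells; inhibitors lower the luminescence signal.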 Format: functional, cell-based.
For a further experiment, the target named is Cytochrome P450 2C9 (Homo sapiens, UniProt P11712).
Cytochrome P450 2C9, sequence (P11712 whole entry): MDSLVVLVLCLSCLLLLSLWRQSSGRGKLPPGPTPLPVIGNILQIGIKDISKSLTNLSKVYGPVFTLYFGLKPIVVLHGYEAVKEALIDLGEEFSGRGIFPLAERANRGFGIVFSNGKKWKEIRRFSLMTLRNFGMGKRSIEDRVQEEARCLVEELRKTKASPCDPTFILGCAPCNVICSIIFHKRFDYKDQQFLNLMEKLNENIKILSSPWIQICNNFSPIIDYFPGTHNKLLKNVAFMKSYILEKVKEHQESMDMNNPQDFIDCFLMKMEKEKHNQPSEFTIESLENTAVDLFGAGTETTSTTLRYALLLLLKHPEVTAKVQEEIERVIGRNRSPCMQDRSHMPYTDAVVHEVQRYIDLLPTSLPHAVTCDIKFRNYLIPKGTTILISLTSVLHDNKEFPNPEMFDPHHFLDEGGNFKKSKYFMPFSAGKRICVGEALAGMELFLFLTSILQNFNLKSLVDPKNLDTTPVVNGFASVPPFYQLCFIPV
In another experiment the target is T2, Cytochrome P450 1A2 (Homo sapiens, UniProt P05177).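 Also: PubChem cytochrome P450 panel assay, CYP1A2 panel member.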
T2 sequence (P05177 whole entry): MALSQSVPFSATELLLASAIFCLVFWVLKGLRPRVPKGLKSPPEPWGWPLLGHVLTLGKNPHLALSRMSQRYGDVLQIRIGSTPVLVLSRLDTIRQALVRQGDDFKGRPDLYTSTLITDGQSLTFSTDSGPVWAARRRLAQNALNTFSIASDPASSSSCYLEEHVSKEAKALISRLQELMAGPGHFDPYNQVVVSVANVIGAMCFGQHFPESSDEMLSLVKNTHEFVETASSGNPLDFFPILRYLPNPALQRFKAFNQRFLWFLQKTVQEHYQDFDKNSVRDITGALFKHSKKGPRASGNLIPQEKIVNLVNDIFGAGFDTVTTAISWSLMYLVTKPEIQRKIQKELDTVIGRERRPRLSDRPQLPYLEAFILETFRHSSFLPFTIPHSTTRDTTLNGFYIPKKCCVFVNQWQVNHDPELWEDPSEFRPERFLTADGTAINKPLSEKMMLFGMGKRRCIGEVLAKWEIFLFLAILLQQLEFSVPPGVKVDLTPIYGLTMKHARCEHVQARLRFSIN

For another experiment, the target named is Cytochrome P450 2C19 (Homo sapiens, UniProt P33261). Nature of the experiment: Cytochrome panel assay with activity outcomes. Panel member name: p450-cyp2c19 Compounds with AC50 equal or less than 10 uM are considered active. The note with it: read-out: AC50. Format: functional.
Cytochrome P450 2C19, sequence (P33261 whole entry): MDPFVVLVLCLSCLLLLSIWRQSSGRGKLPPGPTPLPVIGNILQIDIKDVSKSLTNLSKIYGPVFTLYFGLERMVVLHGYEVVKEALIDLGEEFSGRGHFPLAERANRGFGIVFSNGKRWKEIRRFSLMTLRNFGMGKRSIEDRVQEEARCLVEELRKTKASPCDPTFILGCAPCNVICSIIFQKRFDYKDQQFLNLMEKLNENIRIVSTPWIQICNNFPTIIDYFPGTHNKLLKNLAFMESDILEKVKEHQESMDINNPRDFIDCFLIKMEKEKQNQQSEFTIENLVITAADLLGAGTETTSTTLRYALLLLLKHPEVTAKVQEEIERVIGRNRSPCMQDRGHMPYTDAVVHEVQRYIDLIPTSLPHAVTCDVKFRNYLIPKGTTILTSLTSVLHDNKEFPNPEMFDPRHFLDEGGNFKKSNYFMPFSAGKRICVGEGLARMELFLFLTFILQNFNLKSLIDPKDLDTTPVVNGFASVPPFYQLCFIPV
The target of another experiment is Cytochrome P450 3A4 (Homo sapiens, UniProt P08684).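 Also: CYP3A4 tested as one member of a cytochrome P450 panel screen.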
Cytochrome P450 3A4, sequence (P08684 whole entry): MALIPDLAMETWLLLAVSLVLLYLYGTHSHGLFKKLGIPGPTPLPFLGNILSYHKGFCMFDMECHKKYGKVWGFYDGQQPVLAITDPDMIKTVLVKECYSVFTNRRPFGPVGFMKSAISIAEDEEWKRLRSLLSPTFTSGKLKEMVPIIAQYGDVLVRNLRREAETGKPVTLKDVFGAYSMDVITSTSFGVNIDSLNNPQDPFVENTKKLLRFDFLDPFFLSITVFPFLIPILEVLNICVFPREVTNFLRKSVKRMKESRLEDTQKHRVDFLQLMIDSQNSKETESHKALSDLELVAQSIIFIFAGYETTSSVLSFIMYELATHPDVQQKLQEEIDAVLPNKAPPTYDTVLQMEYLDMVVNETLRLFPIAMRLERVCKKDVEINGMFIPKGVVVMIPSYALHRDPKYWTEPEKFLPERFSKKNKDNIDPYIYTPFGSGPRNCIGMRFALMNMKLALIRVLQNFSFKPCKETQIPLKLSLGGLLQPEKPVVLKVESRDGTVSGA
Experiment [8] can be described thus: Luminescence Cell-Based Dose Retest to Confirm Inhibitors of Cancer Stem Cells. [Related pubchem assays (depositor defined):AID2717, AID2721]. Format: functional. The note with it: Homo sapiens.
The next experiment deals with Cytochrome P450 2D6 (Homo sapiens, UniProt P10635).
Cytochrome P450 2D6, sequence (P10635 whole entry): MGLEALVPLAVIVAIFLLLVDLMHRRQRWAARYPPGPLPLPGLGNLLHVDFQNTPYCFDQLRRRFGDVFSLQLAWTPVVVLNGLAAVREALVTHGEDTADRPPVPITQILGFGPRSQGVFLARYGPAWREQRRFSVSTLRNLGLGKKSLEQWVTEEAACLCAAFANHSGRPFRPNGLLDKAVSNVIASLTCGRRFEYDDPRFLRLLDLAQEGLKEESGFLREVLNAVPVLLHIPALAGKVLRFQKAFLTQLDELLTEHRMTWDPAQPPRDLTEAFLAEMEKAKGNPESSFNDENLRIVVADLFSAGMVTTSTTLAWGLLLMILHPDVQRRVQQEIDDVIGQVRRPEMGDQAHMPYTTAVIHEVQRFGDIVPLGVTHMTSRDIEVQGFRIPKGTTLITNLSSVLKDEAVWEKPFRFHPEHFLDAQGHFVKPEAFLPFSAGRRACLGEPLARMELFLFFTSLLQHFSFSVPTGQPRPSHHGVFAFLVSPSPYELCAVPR

SMILES strings stand for the structures. Calls of active or inactive are those of the source.

Consider `Oc1ccc(C23CCCC2C2(CCCC2)c2ccc(O)cc2O3)c(O)c1` (configuration not stated), for which the CC50 (commonly the concentration at which the toxic effect on the cells reaches its halfway point) in [1] was 10.6 µM (active).
Take `COc1ccc(S(=O)(=O)N2CCOC2CNC(=O)C(=O)NCCc2ccccc2)cc1C` (configuration not stated): the EC50 in experiment [2] was > 53 µM (inactive). Moreover, the IC50 in experiment [3] is > 47.1 µM (inactive).
As for `COc1ccc(-n2c(Cc3cccc([N+](=O)[O-])c3)nc3ccccc3c2=O)cc1`, the CC50 in experiment [1] is > 50 µM (active).
On the same count and under the same terms, the result for `C[C@@]12C(=O)N(c3cccc(F)c3)C(=O)N1[C@H](c1ccc(Cl)cc1)[C@@H]1C(=O)N(C3CCCCC3)C(=O)[C@@H]12` reads 38.5 µM (active).
As for `Cc1cc(C(=O)N2CCN(c3cccc(Cl)c3)CC2)c(C)o1`, the EC50 in [4] is 20.8 µM (active); in the experiment on H4 it was > 120 µM (not active); in experiment [5], > 120 µM (not active).
For `O=C1c2ccccc2NC(c2ccccc2Cl)N1N=C1CCCCCC1` (configuration not stated), the EC50 in experiment [4] is 11.9 µM (active); in the experiment on H4 it was 0.493 µM (active); in experiment [5] it was 18.9 µM (active).
With `c1ccc(CN2CCC(Nc3nc(-c4cccnc4)nc4ccccc34)CC2)cc1`, the EC50 was > 120 µM (not active) in experiment [4]; 104 µM (active) with H4; 8.99 µM (active) in experiment [6]; 13 µM (active) in [5]; 1.34 µM (active) in experiment [7].
As for `CCOC(=O)C1CCN(c2ncnc3c2nnn3Cc2ccccc2Cl)CC1`, in experiment [2], the EC50 is > 53 µM (inactive). The IC50 in experiment [3] is > 47.1 µM (inactive).
Taken in the same sequence, the figures for `Cc1nc2ccc(NC(=O)c3cccc(S(=O)(=O)N4CCOCC4)c3)cc2s1` were > 53 µM (inactive) and > 47.1 µM (inactive).
Turning to `CC(C)(C)c1ccc(C(=O)NCCN2CCOCC2)cc1`, the EC50 in experiment [4] is 11.8 µM (active); with H4 it was 18.3 µM (active); in [5] it was 12.5 µM (active).
`CN1C(=O)C(O)(C2COC(C)(C)CC2=O)c2cc(Br)ccc21` (configuration not stated): in experiment [2], the EC50 was > 53 µM (inactive). In addition, the IC50 in experiment [3] is > 47.1 µM (inactive).
In the same order, the values of `COc1ccc(C(CC(=O)Nc2ccc(F)cc2)c2ccccc2)cc1` (configuration not stated) are > 53 µM (inactive) and 24.3 µM (active).
Regarding `COc1ccc(C2=NN(C(C#N)c3ccc(OC)cc3)C(c3ccccc3)C2)cc1` (configuration not stated), the EC50 is 8.15 µM (active) in experiment [4], > 120 µM (not active) in the experiment on H4 and 5.24 µM (active) in experiment [5].
Turning to `CCCCCCC[n+]1ccc(-c2cc[n+](CCCCCCC)cc2)cc1`, the AC50 (usually the concentration giving half of the maximal activity seen) is 39.8 µM (inconclusive) at Cytochrome P450 2C9, 31.6 µM (inconclusive) at Cytochrome P450 1A2 and 10 µM (inconclusive) at Cytochrome P450 2C19.
Take `CCC(CC)C(=O)c1c[nH]c(C(=O)NCCc2ccccn2)c1`: the AC50 on Cytochrome P450 2C9 was 39.8 µM (inconclusive); on Cytochrome P450 3A4 it was 20 µM (inconclusive); at Cytochrome P450 1A2 it was 14.1 µM (inconclusive); on Cytochrome P450 2C19, 20 µM (inconclusive).
In the case of `O=S(=O)(Cc1ccccc1)N1CCC(c2nc(O)c3nnn(Cc4cccc(Cl)c4)c3n2)CC1`, the CC50 in experiment [1] is 48.9 µM (active).
On to `O=c1c2ccccc2nnn1-c1ccc(Br)cc1`, for which the EC50 in experiment [4] is 0.1 µM (active); in the experiment on H4, 19 µM (active); in [5], 0.157 µM (active).
For the molecule `Cc1cccn2c(=O)c(/C=N/c3ccccc3)c(NCc3ccco3)nc12`, the EC50 (in experiment [4]; in the experiment on H4; in experiment [5]) was > 120 µM (not active) in each case.
In the case of `COc1cc(C=O)ccc1OCCOCCOc1ccc(Cl)cc1Cl`, in experiment [2], the EC50 was > 53 µM (inactive). Further, in experiment [3], the IC50 was > 47.1 µM (inactive).
As to `C/C(=N/NS(=O)(=O)c1ccc(Br)cc1)c1ccc(NC(=O)c2ccc(C)o2)cc1`, the CC50 in experiment [1] was 38 µM (active).
`CC(Sc1nnc(NCc2ccccc2)s1)C(=O)Nc1ccc2c(c1)C(=O)c1ccccc1C2=O` (configuration not stated): the EC50 in experiment [4] is 9.18 µM (active); in the experiment on H4 it was 49.2 µM (active); in [5], 14.1 µM (active).
With `Cc1[nH]c2ccccc2c1/C=N/NC(=O)c1cccc(S(=O)(=O)Nc2cccc(C(F)(F)F)c2)c1`, in [1], the CC50 was 12.2 µM (active).
In the case of `Cc1cc2nnc(SCC(=O)NCc3ccco3)n2c2ccccc12`, the EC50 in [4] is 5.13 µM (active); with H4, > 120 µM (not active); in experiment [5], > 120 µM (not active). For the same molecule, the AC50 in experiment [8] is 2.9 µM (active).
For the molecule `CCOC(=O)c1sc2nc(C)n(CC(=O)NCC3CCCO3)c(=O)c2c1C` (configuration not stated), the EC50 in [2] was > 53 µM (inactive). In addition, in [3], the IC50 was > 47.1 µM (inactive).
In the same order, the values of `COc1ccc(OC)c2c1s/c(=N\C(=O)C1COc3ccccc3O1)n2C` (configuration not stated) are > 53 µM (inactive) and > 47.1 µM (inactive).
For `CCOC(=O)c1cc(C#N)c(Oc2ccccc2OC)nc1-c1ccccc1`, on Cytochrome P450 3A4, the AC50 was 11.2 µM (inconclusive). Also, in experiment [2], the EC50 is > 53 µM (inactive). In addition, the IC50 in experiment [3] was > 47.1 µM (inactive).
With `O=C(C1CCCN1S(=O)(=O)c1cccc2nsnc12)N1CCN(c2ccccc2)CC1` (configuration not stated), the EC50 (in experiment [4]; with H4; in [5]) was > 120 µM (not active) in each case.
Regarding `CCOC(=O)N1CCN(Cc2nc3c(c(=O)n(C)c(=O)n3C)n2CCC(C)C)CC1`, the EC50 in experiment [2] was > 53 µM (inactive). In addition, in experiment [3], the IC50 was > 47.1 µM (inactive).
As to `CCOc1cc(/C=C2\SC(=S)N(Nc3ccccc3)C2=O)ccc1O`, the EC50 is 9.91 µM (active) in [4], 22.6 µM (active) in the experiment with H4 and 8.87 µM (active) in [5].
Consider `O=Nc1c(O)n(Cc2ccc(Cl)cc2)c2ccccc12`, for which the CC50 in [1] is 38.5 µM (active). The AC50 at Cytochrome P450 2D6 was 25.1 µM (inconclusive).

(Values after ChEMBL document CHEMBL1201862, “PubChem BioAssay data set” (2004).)
